In patent US5270302A, “Derivatives of tetrapeptides as CCK agonists” (priority 1991, dated 1993):
Counter-ions that a name gives are not always drawn. Like-named read-outs stand apart in the source and are kept apart here. *1 amine or outer side, *2 acyl side, *3 side chain or, on linkers, in order; H or OH if unused. Where a SMILES comes first, the peptide text is derived from it. Side-chain parts run from the residue outwards. [ ]: non-standard residue; d: D form. The star is where a group is joined. Propanoyl(3,3-Ph2) = O=C(CC(c1ccccc1)c1ccccc1)*; 2Naphthoyl(6-OH) = O=C(c1ccc2cc(O)ccc2c1)*; NMeW = CN[C@@H](Cc1c[nH]c2ccccc12)C(=O)O; 1Nal = N[C@@H](Cc1cccc2ccccc12)C(=O)O; Butanoyl(3,3-Me2) = CC(C)(C)CC(=O)*; Adoc = O=C(OC12CC3CC(CC(C3)C1)C2)*; Isopropoxycarbonyl = CC(C)OC(=O)*; NMeF = CN[C@@H](Cc1ccccc1)C(=O)O; NMeD = CN[C@@H](CC(=O)O)C(=O)O; NH(2-Me-phenyl) = Cc1ccccc1N*; Suc = O=C(CCC(=O)[*:2])[*:1]; X17 = O=C(C=Cc1ccccc1O)*; Boc = CC(C)(C)OC(=O)*; CO = O=C([*:1])[*:2]; NHPh = c1ccc(N*)cc1; Moc = COC(=O)*

Legend:
Type-A CCK receptor = target: T1, Type-A CCK receptor (Cavia porcellus, UniProt Q63931); assay: Radioligand binding of [125I]BH-CCK-8 in guinea pig pancreatic membrane preparations
T1 construct: Cortical and pancreatic membranes were prepared as described; from tissue; host or cells: guinea pig pancreas membranes
T1 sequence (Q63931 1-430): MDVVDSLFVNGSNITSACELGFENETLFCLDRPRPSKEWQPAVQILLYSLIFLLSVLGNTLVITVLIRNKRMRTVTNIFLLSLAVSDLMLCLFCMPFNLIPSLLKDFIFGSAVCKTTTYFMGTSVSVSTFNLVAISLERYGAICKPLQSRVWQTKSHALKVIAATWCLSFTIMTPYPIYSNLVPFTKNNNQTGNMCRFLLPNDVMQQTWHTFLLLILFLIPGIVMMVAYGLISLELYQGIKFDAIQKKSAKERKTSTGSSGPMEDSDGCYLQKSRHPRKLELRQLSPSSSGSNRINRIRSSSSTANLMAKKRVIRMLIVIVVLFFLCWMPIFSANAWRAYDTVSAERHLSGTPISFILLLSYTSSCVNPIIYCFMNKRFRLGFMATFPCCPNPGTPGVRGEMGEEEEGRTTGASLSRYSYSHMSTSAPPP
Description: (§1) CCK-8 [Asp-Tyr(SO3 H)-Met-Gly-Trp-Met-Asp-PheNH2 ], bestatin and phosphoramidion were purchased from Peptide International (Louisville, Ky.). EGTA (ethylene glycol-bis-(β-aminoethyl) N,N,N',N'-tetraacetic acid), HEPES (4-(2-hydroxyethyl)-1-piperazine-enthanesulfonic acid) and BSA (bovine serum albumin) were purchased from Sigma Chemical Co. (St. Louis, Mo.). [^125 I]-Bolton-Hunteer (BH-CCK-8) (specific activity, 2200 Ci/mmol) was obtained from New England Nuclear (Boston, Mass.). Male guinea pigs, 250 to 325 g, were obtained from Scientific Small Animal Laboratory and Farm (Arlington Heights, Ill.). Collagenase, code CLSPA was purchased from Worthington (Frehold, N.J.).
(§2) Protocol For Radioligand Binding Experiments in Guinea Pig Cerebral Cortical and Pancreatic Membrane Preparations
(§3) Cortical and pancreatic membranes were prepared as described (Lin and Miller; J. Pharmacol. Exp. Ther. 1985, 232:775-780,). In brief, cortex and pancreas were removed and rinsed with ice-cold saline. Visible fat and connective tissues were removed from the pancreas. […] The homogenates were entrifuged for 10 minutes at 1075×g and pellets were discarded. The supernatants were saved and centrifuged at 38,730×g for 20 minutes. The resultant pellets were rehomogenized in 25 mL of 50 mM Tris-HCl buffer with a Teflon-glass homogenizer, 5 up and down strokes. The homogenates were centrifuged again at 38,730×g for 20 minutes. Pellets werre then resuspended in 20 mM HEPES, containing 1 mM EGTA, 118 mM NaCl, 4.7 mM KCl, 5 mM MgCl2, 100 μM bestatin, 3 μM phosphoramidon, pH 7.4 at 22° C. with a Teflon-glass homogenizer, 15 up and down strokes. Resuspension volume for the cortex was 15-18 mL per gram of original wet weight and 60 mL per gram for the pancreas.
(§4) [^125 I]Bolton-Hunter CCK-8 and test compounds were diluted with HEPES-EGTA-salt buffer (see above) containing 0.5% BSA. To 1 mL Skatron polystyrene tubes were added 25 μL of test compounds, 25 μL of [^125 I]BH-CCK-8 and 200 μL of membrane suspension. The final BSA concentration was 0.1%. The cortical tissues were incubated at 30° C. for 150 minutes and pancreatic tissues were incubated at 37° C. for 150 min. Incubations were terminated by filtration using Skatron Cell Harvester and SS32 microfiber filter mats. […] IC50 s were determined from the Hill analysis.

Type-B CCK receptor = target: T2, Type-B CCK receptor (Cavia porcellus, UniProt H0VZC5); assay: Radioligand binding of [125I]BH-CCK-8 in guinea pig cerebral cortical membrane preparations
T2 construct: Cortical and pancreatic membranes were prepared as described; from tissue; host or cells: guinea pig cerebral cortex membranes
T2 sequence (H0VZC5 1-426): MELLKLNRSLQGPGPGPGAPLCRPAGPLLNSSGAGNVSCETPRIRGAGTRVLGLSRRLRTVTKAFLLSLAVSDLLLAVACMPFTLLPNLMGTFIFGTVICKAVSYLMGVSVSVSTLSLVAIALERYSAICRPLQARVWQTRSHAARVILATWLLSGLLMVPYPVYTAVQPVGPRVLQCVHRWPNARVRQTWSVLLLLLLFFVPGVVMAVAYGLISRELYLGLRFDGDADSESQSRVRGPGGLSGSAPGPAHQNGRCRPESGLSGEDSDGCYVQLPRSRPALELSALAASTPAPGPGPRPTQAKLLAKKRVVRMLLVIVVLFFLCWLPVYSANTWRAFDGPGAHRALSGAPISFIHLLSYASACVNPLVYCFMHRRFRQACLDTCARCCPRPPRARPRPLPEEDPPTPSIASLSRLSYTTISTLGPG
Description: as §1, §2, §3, §4

[1] = IC50 (nM) 125I-BH-CCK-8 Type-A receptor, guinea pig pancreatic membranes, 37° C., 150 min
[2] = IC50 (nM) 125I-BH-CCK-8 Type-B receptor, guinea pig cortical membranes, 30° C., 150 minutes
[3] = guinea pig pancreatic membranes, 37° C., 150 min, read-out: IC50 (nM) 125I-BH-CCK-8 Type-A receptor
[4] = guinea pig cortical membranes, 30° C., 150 minutes, read-out: IC50 (nM) 125I-BH-CCK-8 Type-B receptor

| Structure (SMILES) | IC50 (Type-A CCK receptor; [1]) | IC50 (Type-B CCK receptor; [2]) | IC50 (Type-B CCK receptor) | other results |
| --- | --- | --- | --- | --- |
| CC(=O)N[C@@H](Cc1c[nH]c2ccccc12)C(=O)N[C@@H](CCCCNC(=O)Nc1ccccc1C)C(=O)N(C)[C@@H](CC(=O)O)C(=O)N[C@@H](Cc1ccccc1)C(N)=O [Example 86, Acetyl-Trp-Lys(ε-N-(2-methylphenyl)aminocarbonyl)-(NMe)Asp-PheNH2] (Ac-WK([CO-NH(2-Me-phenyl)])[NMeD]F-NH2) | 6.7 nM | > 10000 nM |  |  |
| Cc1ccccc1NC(=O)NCCCC[C@H](NC(=O)[C@H](Cc1c[nH]c2ccccc12)NC(=O)CC(c1ccccc1)c1ccccc1)C(=O)N[C@@H](CC(=O)O)C(=O)N(C)[C@@H](Cc1ccccc1)C(N)=O [Example 92, (3,3-Diphenylpropionyl)-Trp-Lys(ε-N-(2-methylphenyl)aminocarbonyl)-Asp-(NMe)PheNH2] ({Propanoyl(3,3-Ph2)}-WK([CO-NH(2-Me-phenyl)])D[NMeF]-NH2) |  |  | 5000 nM | IC50 (Type-A CCK receptor): 5.6 nM |
| Cc1ccccc1NC(=O)NCCCC[C@H](NC(=O)[C@H](Cc1c[nH]c2ccccc12)NC(=O)Nc1ccccc1)C(=O)N[C@@H](CC(=O)O)C(=O)N(C)[C@@H](Cc1ccccc1)C(N)=O [Example 84, Phenylaminocarbonyl-Trp-Lys(ε-N-(2-methylphenyl)aminocarbonyl)-Asp-(NMe)PheNH2] ({NHPh-CO}-WK([CO-NH(2-Me-phenyl)])D[NMeF]-NH2) | 3 nM | 3000 nM |  |  |
| CC(C)(C)OC(=O)N[C@@H](Cc1c[nH]c2ccccc12)C(=O)N[C@@H](CCCCNC(=O)C=Cc1ccccc1O)C(=O)N[C@@H](CC(=O)O)C(=O)N[C@@H](Cc1ccccc1)C(N)=O [Example 22, t-BOC-Trp-Lys(ε-N-(2-hydroxycinnamoyl))-Asp-PheNH2] (Boc-WK(X17)DF-NH2) |  |  |  | IC50 (Type-A CCK receptor; [3]): 81 nM; IC50 (Type-B CCK receptor; [4]): 200 nM |
| CN[C@@H](Cc1c[nH]c2ccccc12)C(=O)N[C@@H](CCCCNC(=O)Nc1ccccc1C)C(=O)N(C)[C@@H](CC(=O)O)C(=O)N[C@@H](Cc1cccc2ccccc12)C(N)=O [Example 100, (NMe)Trp-Lys(ε-N-(2-methylphenyl)aminocarbonyl)-(NMe)Asp-α-NalNH2] (H-[NMeW]K([CO-NH(2-Me-phenyl)])[NMeD][1Nal]-NH2) | 8 nM | 12000 nM |  |  |
| CN(C(=O)[C@H](CCCCNC(=O)c1ccc2cc(O)ccc2c1)NC(=O)[C@H](Cc1c[nH]c2ccccc12)NC(=O)OC(C)(C)C)[C@@H](CC(=O)O)C(=O)N(C)[C@@H](Cc1ccccc1)C(N)=O [Example 73] (Boc-WK(2Naphthoyl(6-OH))[NMeD][NMeF]-NH2) |  |  |  | IC50 (Type-A CCK receptor; [3]): 15 nM; IC50 (Type-B CCK receptor; [4]): 3700 nM |
| Cc1ccccc1NC(=O)NCCCC[C@H](NC(=O)[C@H](Cc1c[nH]c2ccccc12)NC(=O)OC12CC3CC(CC(C3)C1)C2)C(=O)N[C@@H](CC(=O)O)C(=O)N(C)[C@@H](Cc1ccccc1)C(N)=O [Example 75, 1-Adamantyloxycarbonyl-Trp-Lys(ε-N-(2-methylphenyl)aminocarbonyl)-Asp-(NMe)PheNH2] (Adoc-WK([CO-NH(2-Me-phenyl)])D[NMeF]-NH2) |  |  | 10000 nM | IC50 (Type-A CCK receptor): 17 nM |
| Cc1ccccc1NC(=O)NCCCC[C@H](NC(=O)CCc1cccc2ccccc12)C(=O)N[C@@H](CC(=O)O)C(=O)N(C)[C@@H](Cc1ccccc1)C(N)=O [Example 111, (3-(α-Naphthyl)propionyl)-Lys(ε-N-(2-methylphenyl)aminocarbonyl)-Asp-(NMe)PheNH2] |  |  |  | IC50 (Type-A CCK receptor; [3]): 77 nM; IC50 (Type-B CCK receptor; [4]): > 10000 nM |
| COC(=O)N[C@@H](Cc1c[nH]c2ccccc12)C(=O)N[C@@H](CCCCNC(=O)Nc1ccccc1C)C(=O)N[C@@H](CC(=O)O)C(=O)N(C)[C@@H](Cc1ccccc1)C(N)=O [Example 80, Methoxycarbonyl-Trp-Lys(ε-N-(2-methylphenyl)aminocarbonyl)-Asp-(NMe)PheNH2] (Moc-WK([CO-NH(2-Me-phenyl)])D[NMeF]-NH2) |  |  | 5200 nM | IC50 (Type-A CCK receptor): 4.8 nM |
| COC(=O)N[C@@H](Cc1c[nH]c2ccccc12)C(=O)N[C@@H](CCCCNC(=O)Nc1ccccc1C)C(=O)N(C)[C@@H](CC(=O)O)C(=O)N(C)[C@@H](Cc1ccccc1)C(N)=O [Example 124] (Moc-WK([CO-NH(2-Me-phenyl)])[NMeD][NMeF]-NH2) | 4.5 nM | 2600 nM |  |  |
| CN[C@@H](Cc1c[nH]c2ccccc12)C(=O)N[C@@H](CCCCNC(=O)Nc1ccccc1C)C(=O)N(C)[C@@H](CC(=O)O)C(=O)N[C@@H](Cc1ccccc1)C(N)=O [Example 69, HCl-(NMe)Trp-Lys(ε-N-(2-methylphenyl)aminocarbonyl)-(NMe)Asp-PheNH2] (H-[NMeW]K([CO-NH(2-Me-phenyl)])[NMeD]F-NH2) | 14 nM |  | > 10000 nM |  |
| Cc1ccccc1NC(=O)NCCCC[C@H](NC(=O)CCc1c[nH]c2ccccc12)C(=O)N[C@@H](CC(=O)O)C(=O)N(C)[C@@H](Cc1ccccc1)C(N)=O [Example 70, 3-(Indol-3-yl)propionyl-Lys(ε-N-(2-methylphenyl)aminocarbonyl)-Asp-(NMe)PheNH2] |  |  |  | IC50 (Type-A CCK receptor; [3]): 13 nM; IC50 (Type-B CCK receptor; [4]): > 10000 nM |
| Cc1ccccc1NC(=O)NCCCC[C@H](NC(=O)[C@H](Cc1c[nH]c2ccccc12)NC(=O)OC(C)C)C(=O)N[C@@H](CC(=O)O)C(=O)N(C)[C@@H](Cc1ccccc1)C(N)=O [Example 78, Isopropyloxycarbonyl-Trp-Lys(ε-N-(2-methylphenyl)aminocarbonyl)-Asp-(NMe)PheNH2] (Isopropoxycarbonyl-WK([CO-NH(2-Me-phenyl)])D[NMeF]-NH2) | 1.6 nM |  | 5000 nM |  |
| CC(=O)N[C@@H](Cc1c[nH]c2ccccc12)C(=O)N[C@@H](CCCCNC(=O)Nc1ccccc1C)C(=O)N[C@@H](CC(=O)O)C(=O)N(C)[C@@H](Cc1ccccc1)C(N)=O [Example 85, Acetyl-Trp-Lys(ε-N-(2-methylphenyl)aminocarbonyl)-Asp-(NMe)PheNH2] (Ac-WK([CO-NH(2-Me-phenyl)])D[NMeF]-NH2) | 5.8 nM | 10000 nM |  |  |
| Cc1ccccc1NC(=O)NCCCC[C@H](NC(=O)[C@H](Cc1c[nH]c2ccccc12)NC(=O)CCC(=O)O)C(=O)N[C@@H](CC(=O)O)C(=O)N(C)[C@@H](Cc1ccccc1)C(N)=O [Example 94, (3-Carboxylpropionyl)-Trp-Lys(ε-N-(2-methylphenyl)aminocarbonyl)-Asp-(NMe)PheNH2] (Suc-WK([CO-NH(2-Me-phenyl)])D[NMeF]-NH2) |  |  | 5600 nM | IC50 (Type-A CCK receptor): 16 nM |
| Cc1ccccc1NC(=O)NCCCC[C@H](NC(=O)[C@H](Cc1c[nH]c2ccccc12)NC(=O)CC(C)(C)C)C(=O)N(C)[C@@H](CC(=O)O)C(=O)N[C@@H](Cc1ccccc1)C(N)=O [Example 88B, t-butylacetyl-Trp-Lys(ε-N-(2-methylphenyl)aminocarbonyl)-(NMe)Asp-PheNH2] ({Butanoyl(3,3-Me2)}-WK([CO-NH(2-Me-phenyl)])[NMeD]F-NH2) | 3.7 nM | > 10000 nM |  |  |
